Test results: patent US11286268B1, “EIF4E-inhibiting compounds and methods” (EFFECTOR THERAPEUTICS, INC., priority 2019, dated 2022)
Like-named read-outs stand apart in the source and are kept apart here.

What was measured:
[1] = biological target: recombinant eIF4E (Homo sapiens (Human), UniProt P06730); experiment: Fluorescence polarization competition assay for eIF4E binding potency
In short: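 Protein and fluorescent cap-analog probe (EDA-m7GDP-ATTO-550) were mixed first for 5 min, after which serially diluted compound was added to final 75 nM eIF4E, 20 nM probe, 1% DMSO. Reactions equilibrated 30 min at room temperature before polarization was measured.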

[2] = system: MDA-MB-361 cells; experiment: Cell proliferation assay (CELLTITER-GLO); format: cell-based; conditions: Homo sapiens, 144 h, 6 days of treatment; for IC50: CELLTITER-GLO, % of DMSO control
Experimental: MDA-MB-361 cells were maintained in DMEM supplemented with 10% FBS and 1× penicillin/streptomycin solution at […] in a CO2 incubator. For cell proliferation assays, exponentially growing cells were seeded at 2,000 cells per well in 96-well flat bottom white polystyrene plates (ThermoFisher) and cultured overnight. The following day, compound was added in a 9 point 3-fold dilution series starting from a top concentration of 1 or 10 μM (as indicated) together with a DMSO control. The final DMSO concentration in samples was 0.1%.
Cells were incubated for up to 6 […] at 37° C. in a CO2 incubator. Baseline viability of untreated cells was measured on the day of treatment and proliferation was measured after 6 […] of treatment using CELLTITER-GLO® reagent from Promega (Madison, Wis.) according to the manufacturer's instructions. Response to compound was calculated relative to the DMSO control (% of control) using the formula, % of control (DMSO)=[(CTGcells+inhibitor)/(CTGDMSO control)]×100. Data were plotted using Prism (GraphPad software), and IC50 and Emax values were calculated from a 4 parameter, variable slope non-linear regression model. Results are shown below and in FIGS. 1-3.

[3] = fluorescence polarization competition, 75 nM recombinant eIF4E, 20 nM EDA-m7GDP-ATTO-550, IC50 class, read-out: elF4E FP
[4] = inhibition of eIF4E/EDA-m7GDP-ATTO-550 binding by 50%, Table 4B calculated values, read-out: IC50
[5] = inhibition of eIF4E/EDA-m7GDP-ATTO-550 binding, calculated IC50 values, Table 4B, read-out: IC50

Chain of recombinant eIF4E (P06730 whole entry): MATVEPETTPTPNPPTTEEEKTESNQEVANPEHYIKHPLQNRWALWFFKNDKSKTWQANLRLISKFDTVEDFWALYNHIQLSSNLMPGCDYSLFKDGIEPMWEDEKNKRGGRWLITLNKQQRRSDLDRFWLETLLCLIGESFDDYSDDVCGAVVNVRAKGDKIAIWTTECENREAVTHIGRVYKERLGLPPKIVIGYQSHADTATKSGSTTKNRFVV

Structure (SMILES) | IC50 [1, 3] | IC50 [1, 4] | IC50 [2] | Emax ([2]; 4 parameter non-linear regression) | IC50 [1, 5]
Cc1cc(-c2cc(Cl)ccc2OCCn2c(C)nc3cc(C(F)(F)F)c(N4CCN(C)CC4)c(C#N)c3c2=O)c2scc(C(=O)O)c2n1 [compound 634, 7-(5-chloro-2-(2-(5-cyano-2-methyl-6-(4-methylpiperazin-1-yl)-4-oxo-7-(trifluoromethyl)quinazolin-3(4H)-yl)ethoxy)phenyl)-5-methylthieno[3,2-b]pyridine-3-carboxylic acid] | < 50 nM | 5.62 nM | 3.8 nM | – | –
Cc1nc2cnc(N(C)C3CCN(CC(C)(F)F)CC3)c(C#N)c2c(=O)n1CC#Cc1ccc(Cl)cc1-c1ccnc2c(C(=O)O)csc12 [compound 1141, 7-(5-chloro-2-(3-(5-cyano-6-((1-(2,2-difluoropropyl)piperidin-4-yl)(methyl)amino)-2-methyl-4-oxopyrido[3,4-d]pyrimidin-3(4H)-yl)prop-1-yn-1-yl)phenyl)thieno[3,2-b]pyridine-3-carboxylic acid] | < 50 nM | 18.9 nM | 361 nM | – | –
Cc1nc2cnc(N(C)C3CCN(C4CC(F)(F)C4)CC3)c(C#N)c2c(=O)n1CC#Cc1ccc(Cl)cc1-c1ccnc2c(C(=O)NS(C)(=O)=O)csc12 [compound 1188, 7-(5-chloro-2-(3-(5-cyano-6-((1-(3,3-difluorocyclobutyl)piperidin-4-yl)(methyl)amino)-2-methyl-4-oxopyrido[3,4-d]pyrimidin-3(4H)-yl)prop-1-yn-1-yl)phenyl)-N-(methylsulfonyl)thieno[3,2-b]pyridine-3-carboxamide] | < 50 nM | 12.4 nM | 46.8 nM | 90.2% | –
Cc1nc2cc(C(F)(F)F)c(N3CCN(C)CC3)c(C#N)c2c(=O)n1CCOc1ccc(Cl)cc1-c1ccnc2cnsc12 [compound 1251] | – | – | – | – | 4.77 nM
Cc1c(CC2CCOCC2)nc(C#N)c2nc(C)n(CC#Cc3ccc(Cl)cc3-c3ccnc4c(C(=O)O)csc34)c(=O)c12 [compound 1965] | – | – | – | – | 86.4 nM
Cc1nc2cnc(N3CCN(C(C)(C)CC#N)CC3)c(C#N)c2c(=O)n1CC#Cc1ccc(Cl)cc1-c1ccnc2c(C(=O)O)csc12 [compound 1367] | – | – | – | – | 14.9 nM
Cc1cc(-c2cc(Cl)ccc2OCCn2c(C)nc3cc(Cl)c(N4CCC4)c(C#N)c3c2=O)c2scc(C(=O)O)c2n1 [compound 752] | < 50 nM | 27.6 nM | – | – | –
COCCC(CCOC)N(C)c1ncc2nc(C)n(CC#Cc3ccc(Cl)cc3-c3ccnc4c(C(=O)O)csc34)c(=O)c2c1C#N [1173b] | – | 13 nM | – | – | –
Cc1nc2c(N3CCN(C)CC(F)(F)C3)ncc(C#N)c2c(=O)n1CCOc1ccc(Cl)cc1-c1ccnc2c(C(=O)O)csc12 [compound 838] | < 50 nM | 38.7 nM | – | – | –
Cc1nc2cnc(C#N)cc2c(=O)n1CCOc1ccc(Cl)cc1-c1ccnc(C(=O)O)c1 [compound 134] | 50 to 1000 nM | 116 nM | – | – | –
